Results taken from patent US20220184082A1, “CANCER THERAPY USING 3,5-DISUBSTITUTED BENZENE ALKYNYL COMPOUND AND PEMBROLIZUMAB” (TAIHO PHARMACEUTICAL CO., LTD., priority 2019, published 2022).

B1: vofatamab: an anti-FGFR3 antibody (antibody, chains of the INN, looked up, V domains shown)
VH: EVQLVESGGGLVQPGGSLRLSCAASGFTFTSTGISWVRQAPGKGLEWVGRIYPTSGSTNYADSVKGRFTISADTSKNTAYLQMNSLRAEDTAVYYCARTYGIYDLYVDYTEYVMDYWGQGTLVTVSS
VL: DIQMTQSPSSLSASVGDRVTITCRASQDVDTSLAWYKQKPGKAPKLLIYSASFLYSGVPSRFSGSGSGTDFTLTISSLQPEDFATYYCQQSTGHPQTFGQGTKVEIK

Columns and labels:
[1] = system: mouse breast cancer cell line 4T1; settings: 4T1-implanted BALB/cAJcl mouse; oral daily 14 days, 15 and 30 mg/kg/day; Day 15
Description: On the day following the final administration (Day 15), lymphocyte fractions were isolated from the tumor, spleen, and peripheral blood, and myeloid-derived suppressor cells (MDSCs) (CD11b^+/Gr-1^+ cells), CD4-positive T cells, and CD8-positive T cells were measured using a cell sorter.

[2] = system: urothelial cancer; settings: cited from earlier work

| Molecule | CD4-positive T cells in the peripheral blood lymphocyte fractions compared with the control [1] | CD8-positive T cells in the peripheral blood lymphocyte fractions compared with the control [1] | CD8-positive T cells in the spleen lymphocyte fractions compared with the control [1] | MDSCs in the peripheral blood lymphocyte fractions compared with the control [1] | Response by combined use with pembrolizumab ([2]; urothelial cancer patients without FGFR genetic aberration, combined with pembrolizumab) | Sensitivity state of the cancer to immune checkpoint inhibitors ([2]; urothelial cancer patients) |
| --- | --- | --- | --- | --- | --- | --- |
| C=CC(=O)N1CC[C@H](n2nc(C#Cc3cc(OC)cc(OC)c3)c3c(N)ncnc32)C1 [compound 1, (S)-1-(3-(4-amino-3-((3,5-dimethoxyphenyl)ethynyl)-1H-pyrazolo[3,4-d]pyrimidin-1-yl)pyrrolidin-1-yl)prop-2-en-1-one] | tended to increase in a dose-dependent manner | tended to increase in a dose-dependent manner | tended to increase in a dose-dependent manner | tended to decrease in a dose-dependent manner |  |  |
| B1 |  |  |  |  | response by combined use with pembrolizumab is observed | change from a “cold” state (low sensitivity to immune checkpoint inhibitors) to a “hot” state (high sensitivity to immune checkpoint inhibitors) |
